According to patent US12669497B2, “Affinity labeling of DNA-linked ligands for high throughput ligand binding assays and the uses thereof” (Purdue Research Foundation, priority 2020, dated 2026):

How the values were obtained:
[1] = target: DHFR (Escherichia coli, UniProt P0ABQ4); assay: Validation of novel hit by FP assay (IC50); type: binding; details: validation of screening hit; FIG. 2g
Method: (§1) FIGS. 2A-2H show the application of LDA in quantifying compounds' IC50 and screening. […] IC50 of compound 1-3 determined by LDA (FIG. 2B) and FP assay (FIG. 2C). […] DNA samples with read numbers below 2 in sequencing were excluded.
(§2) Enrichment of the probes from the two groups were well distinguished (Z′ factor=0.77), indicating a robustness suitable for HTS (FIG. 1e). To further assess well-to-well variability, this experiment was repeated with separate incubation of samples in a well plate. A similar but slightly worse Z′ factor (Z′=0.54, Fig. SX) was observed. We then used this approach to screen the Library of Pharmacologically Active Compounds (LOPAC) library against dihydrofolate reductase (DHFR), a therapeutic target for treating infections (FIG. 2f). Hit compounds within the library displaces the DNA-linked trimethoprim, leading to lower enrichment of the DNA-trimethoprim.

[2] = target: dihydrofolate reductase (DHFR) (Escherichia coli, UniProt P0ABQ4); assay: LDA screening of LOPAC library with DNA-linked trimethoprim probe; type: binding; details: FIG. 2f
Method: as §1, §2

CN(CCOc1ccc(C[C@H](Nc2ccccc2C(=O)c2ccccc2)C(=O)O)cc1)c1ccccn1 [GW1929]
IC50 [1]: 7.9 µM | probe recovery (enrichment of DNA-trimethoprim) in LOPAC screen [2]: low probe recovery
